# Laboratory results taken from ChEMBL document CHEMBL1201862, “PubChem BioAssay data set” (2004).
# Calls of active or inactive are those of the source.
# Key:
# [1] = biological target: Photoreceptor-specific nuclear receptor (Homo sapiens, UniProt Q9Y5X4); experiment: ligands suppressing NR2E3 nuclear receptor activity – biochemical, TR-FRET, dose response (AID 463256); format: functional
# [2] = biological target: Peroxisome proliferator-activated receptor gamma/Nuclear receptor corepressor 2 (Homo sapiens, UniProt P37231+Q9Y618); experiment: Counterscreen for NR2E3 inverse agonists: TR-FRET-based biochemical high throughput dose response assay to identify inverse agonists of the interaction between peroxisome proliferator-activated receptor gamma (PPARg) and nuclear receptor co-repressor 2 (NCOR2).; format: functional
# Peroxisome proliferator-activated receptor gamma/Nuclear receptor corepressor 2, sequence (P37231 whole entry): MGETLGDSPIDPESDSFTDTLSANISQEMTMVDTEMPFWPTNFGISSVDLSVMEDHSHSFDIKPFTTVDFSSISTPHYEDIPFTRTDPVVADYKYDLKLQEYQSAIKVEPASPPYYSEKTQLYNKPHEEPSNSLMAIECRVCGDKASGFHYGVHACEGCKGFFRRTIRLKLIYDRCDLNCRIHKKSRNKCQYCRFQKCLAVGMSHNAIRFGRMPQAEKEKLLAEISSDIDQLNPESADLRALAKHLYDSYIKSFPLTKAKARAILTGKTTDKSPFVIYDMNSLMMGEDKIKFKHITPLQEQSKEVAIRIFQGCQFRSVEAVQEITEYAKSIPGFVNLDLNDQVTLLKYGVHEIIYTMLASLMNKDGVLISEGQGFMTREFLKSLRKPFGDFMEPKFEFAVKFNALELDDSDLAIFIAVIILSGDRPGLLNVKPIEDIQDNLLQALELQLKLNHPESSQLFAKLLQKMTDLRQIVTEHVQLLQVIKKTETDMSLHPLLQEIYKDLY
# Peroxisome proliferator-activated receptor gamma/Nuclear receptor corepressor 2, sequence (Q9Y618 whole entry): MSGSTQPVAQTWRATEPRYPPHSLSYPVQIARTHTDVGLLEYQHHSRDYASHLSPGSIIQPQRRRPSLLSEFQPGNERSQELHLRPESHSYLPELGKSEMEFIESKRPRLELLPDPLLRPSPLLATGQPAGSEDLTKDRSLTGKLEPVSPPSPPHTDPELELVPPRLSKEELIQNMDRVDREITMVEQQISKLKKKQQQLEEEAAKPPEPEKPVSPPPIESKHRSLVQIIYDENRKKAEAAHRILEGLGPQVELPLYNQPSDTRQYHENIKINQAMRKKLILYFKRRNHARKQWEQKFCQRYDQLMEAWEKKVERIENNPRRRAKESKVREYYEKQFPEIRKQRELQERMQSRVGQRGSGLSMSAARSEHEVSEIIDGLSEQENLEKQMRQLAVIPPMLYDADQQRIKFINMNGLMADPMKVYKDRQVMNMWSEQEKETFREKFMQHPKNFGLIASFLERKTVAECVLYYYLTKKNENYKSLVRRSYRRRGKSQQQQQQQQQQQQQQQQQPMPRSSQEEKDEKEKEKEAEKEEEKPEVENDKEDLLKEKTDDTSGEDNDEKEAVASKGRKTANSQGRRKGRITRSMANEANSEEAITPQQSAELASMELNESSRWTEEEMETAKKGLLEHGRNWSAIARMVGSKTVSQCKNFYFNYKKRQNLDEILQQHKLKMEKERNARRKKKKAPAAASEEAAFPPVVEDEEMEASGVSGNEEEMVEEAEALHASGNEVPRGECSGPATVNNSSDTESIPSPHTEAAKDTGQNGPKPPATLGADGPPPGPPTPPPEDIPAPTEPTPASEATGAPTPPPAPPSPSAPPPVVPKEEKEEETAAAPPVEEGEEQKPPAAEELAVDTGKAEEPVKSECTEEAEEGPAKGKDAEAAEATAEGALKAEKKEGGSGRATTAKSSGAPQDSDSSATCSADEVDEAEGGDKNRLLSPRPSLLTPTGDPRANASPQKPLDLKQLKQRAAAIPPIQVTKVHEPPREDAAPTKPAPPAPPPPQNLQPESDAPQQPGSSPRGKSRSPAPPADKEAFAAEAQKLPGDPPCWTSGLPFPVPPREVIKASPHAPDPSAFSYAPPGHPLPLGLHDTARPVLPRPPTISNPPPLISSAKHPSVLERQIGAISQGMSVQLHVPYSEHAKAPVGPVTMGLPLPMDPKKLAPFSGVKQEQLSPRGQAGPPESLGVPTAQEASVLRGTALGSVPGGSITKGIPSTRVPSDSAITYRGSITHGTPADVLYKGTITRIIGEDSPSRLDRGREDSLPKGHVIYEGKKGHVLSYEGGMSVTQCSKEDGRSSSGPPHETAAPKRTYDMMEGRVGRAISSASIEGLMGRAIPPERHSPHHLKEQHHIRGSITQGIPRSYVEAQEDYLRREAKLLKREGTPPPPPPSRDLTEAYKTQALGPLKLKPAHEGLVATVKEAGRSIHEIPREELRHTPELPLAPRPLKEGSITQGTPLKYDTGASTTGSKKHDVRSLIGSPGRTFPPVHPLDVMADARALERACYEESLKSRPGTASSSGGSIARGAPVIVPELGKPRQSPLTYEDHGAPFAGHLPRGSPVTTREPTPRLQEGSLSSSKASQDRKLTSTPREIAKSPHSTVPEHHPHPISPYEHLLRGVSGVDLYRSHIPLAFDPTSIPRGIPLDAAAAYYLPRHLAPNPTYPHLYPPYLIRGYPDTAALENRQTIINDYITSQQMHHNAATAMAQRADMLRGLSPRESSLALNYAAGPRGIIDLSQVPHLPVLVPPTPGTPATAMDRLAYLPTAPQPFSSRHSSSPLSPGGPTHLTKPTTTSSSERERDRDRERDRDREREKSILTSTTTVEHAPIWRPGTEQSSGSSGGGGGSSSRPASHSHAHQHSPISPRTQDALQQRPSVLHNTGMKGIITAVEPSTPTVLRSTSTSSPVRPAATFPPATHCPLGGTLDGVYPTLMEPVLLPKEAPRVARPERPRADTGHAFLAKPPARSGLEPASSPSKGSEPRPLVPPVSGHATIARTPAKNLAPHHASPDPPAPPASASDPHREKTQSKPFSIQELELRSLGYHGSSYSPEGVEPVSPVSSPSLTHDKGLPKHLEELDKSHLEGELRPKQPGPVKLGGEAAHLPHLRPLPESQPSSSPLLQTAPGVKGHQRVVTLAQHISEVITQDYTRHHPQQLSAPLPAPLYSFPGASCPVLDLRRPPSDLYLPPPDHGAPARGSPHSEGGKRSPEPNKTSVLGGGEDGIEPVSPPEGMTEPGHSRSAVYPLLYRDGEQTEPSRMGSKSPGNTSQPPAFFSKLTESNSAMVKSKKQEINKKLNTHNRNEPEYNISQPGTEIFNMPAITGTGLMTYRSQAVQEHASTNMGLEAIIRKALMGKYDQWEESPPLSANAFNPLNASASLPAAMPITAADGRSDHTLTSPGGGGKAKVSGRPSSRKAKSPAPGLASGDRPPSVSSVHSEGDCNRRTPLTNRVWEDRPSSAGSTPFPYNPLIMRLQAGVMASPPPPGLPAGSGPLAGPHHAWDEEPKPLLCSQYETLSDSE
# [3] = biological target: 26S proteasome non-ATPase regulatory subunit 14 (Homo sapiens, UniProt O00487); experiment: inhibition of proteasome subunit RPN11 – biochemical, fluorescence polarization, uHTS hits, confirmation (AID 602368); format: functional
# 26S proteasome non-ATPase regulatory subunit 14, sequence (O00487 whole entry): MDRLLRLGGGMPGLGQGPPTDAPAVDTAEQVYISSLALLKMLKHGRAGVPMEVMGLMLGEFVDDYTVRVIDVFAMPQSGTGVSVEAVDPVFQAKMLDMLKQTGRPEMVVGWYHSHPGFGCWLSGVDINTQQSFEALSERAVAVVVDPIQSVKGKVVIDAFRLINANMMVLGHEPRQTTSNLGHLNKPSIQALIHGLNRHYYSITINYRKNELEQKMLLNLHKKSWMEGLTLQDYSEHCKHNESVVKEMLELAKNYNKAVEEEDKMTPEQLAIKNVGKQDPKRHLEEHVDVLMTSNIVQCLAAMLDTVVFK
# [4] = biological target: 72 kDa type IV collagenase (Homo sapiens, UniProt P08253); experiment: Dose Response validation of uHTS RPN11 inhibitor hits using a MMP-2 Fluorescence assay.; format: functional
# 72 kDa type IV collagenase, sequence (P08253 whole entry): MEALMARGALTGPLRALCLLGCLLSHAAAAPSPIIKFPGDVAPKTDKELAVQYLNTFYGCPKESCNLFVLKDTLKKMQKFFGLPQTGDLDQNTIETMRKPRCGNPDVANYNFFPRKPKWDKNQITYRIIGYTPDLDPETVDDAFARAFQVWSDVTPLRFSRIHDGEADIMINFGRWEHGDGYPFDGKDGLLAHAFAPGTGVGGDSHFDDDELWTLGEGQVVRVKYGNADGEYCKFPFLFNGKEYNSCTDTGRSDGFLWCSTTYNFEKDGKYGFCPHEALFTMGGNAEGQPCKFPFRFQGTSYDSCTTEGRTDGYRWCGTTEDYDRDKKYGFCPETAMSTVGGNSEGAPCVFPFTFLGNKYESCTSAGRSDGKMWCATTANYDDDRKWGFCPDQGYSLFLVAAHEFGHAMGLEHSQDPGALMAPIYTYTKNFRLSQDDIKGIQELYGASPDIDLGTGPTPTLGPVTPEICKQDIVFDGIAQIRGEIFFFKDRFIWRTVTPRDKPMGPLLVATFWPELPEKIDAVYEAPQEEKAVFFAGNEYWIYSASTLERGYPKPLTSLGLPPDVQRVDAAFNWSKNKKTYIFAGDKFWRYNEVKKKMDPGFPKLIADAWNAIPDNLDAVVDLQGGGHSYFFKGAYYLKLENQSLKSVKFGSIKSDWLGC
# Prothrombin = Prothrombin (Bos taurus, UniProt P00735); experiment: thrombin protease inhibitors – biochemical, fluorescence polarization, uHTS hits, dose response (AID 602369); format: functional
# HEK293 = experiment: EBV LMP1 TES2 canonical NF-kB signalling blockers – cell-based, HEK293, luciferase, cherry-pick, dose response (AID 588343); format: functional; conditions: Homo sapiens
# INS1 = experiment: INS-1E survival protection against cytokine death – cell-based, luminescence, retest, dose response (AID 449756); format: functional; conditions: Rattus norvegicus;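 also: cell death triggered by IL-1 beta plus TNF-alpha plus IFN-gamma mixture; protective hits raise ATP signal compared with cytokine alone wells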
# [5] = biological target: T1, Endoribonuclease toxin MazF (Escherichia coli K-12, UniProt P0AE70); experiment: activation of MazEF endoribonuclease cleavage – biochemical, fluorescence, single-stranded RNA substrate, uHTS hits, dose response (AID 588481); format: functional
# T1 sequence (P0AE70 whole entry): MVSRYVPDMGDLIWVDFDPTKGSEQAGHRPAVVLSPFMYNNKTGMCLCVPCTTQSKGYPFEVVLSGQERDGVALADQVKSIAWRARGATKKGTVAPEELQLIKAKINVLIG
# [6] = biological target: T2, Corticotropin-releasing factor receptor 2/Corticotropin-releasing factor-binding protein (Homo sapiens, UniProt P24387+Q13324); experiment: activators of CRF receptor 2 with binding protein – uHTS hits, confirmation (AID 602473); format: functional; conditions: read-out: EC50_Mean
# T2 sequence (Q13324 whole entry): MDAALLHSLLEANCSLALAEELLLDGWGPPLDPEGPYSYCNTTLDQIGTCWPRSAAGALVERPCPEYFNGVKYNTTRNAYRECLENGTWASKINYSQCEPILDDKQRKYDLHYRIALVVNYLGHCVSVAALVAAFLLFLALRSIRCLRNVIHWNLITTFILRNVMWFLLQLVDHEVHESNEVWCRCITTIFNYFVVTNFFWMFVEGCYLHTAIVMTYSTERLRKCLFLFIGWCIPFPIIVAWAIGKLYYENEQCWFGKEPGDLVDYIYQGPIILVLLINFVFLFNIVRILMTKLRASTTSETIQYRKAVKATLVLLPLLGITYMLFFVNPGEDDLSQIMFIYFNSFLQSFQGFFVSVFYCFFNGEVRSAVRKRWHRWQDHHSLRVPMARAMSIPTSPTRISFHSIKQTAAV
# T2 sequence (P24387 whole entry): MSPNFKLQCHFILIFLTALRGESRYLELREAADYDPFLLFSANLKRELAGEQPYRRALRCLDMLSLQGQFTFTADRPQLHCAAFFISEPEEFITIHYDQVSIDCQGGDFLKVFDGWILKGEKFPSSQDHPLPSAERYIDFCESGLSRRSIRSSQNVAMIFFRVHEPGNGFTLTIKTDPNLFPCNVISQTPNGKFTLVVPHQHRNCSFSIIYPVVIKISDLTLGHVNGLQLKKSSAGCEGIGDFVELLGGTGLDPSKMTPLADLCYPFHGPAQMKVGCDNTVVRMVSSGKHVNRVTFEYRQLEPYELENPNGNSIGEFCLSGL
# [7] = biological target: T1, Endoribonuclease toxin MazF; experiment: substrate-only fluorescence increase artefacts – biochemical, single-stranded RNase substrate, counter-screen for MazEF activator project, dose response (AID 588502); format: functional
# Trypsin = Trypsin (Sus scrofa, UniProt P00761); experiment: trypsin protease activity blockade – biochemical, quenched peptide fluorescence, cherry-pick, selectivity assay for Rce1 protease inhibitor project, dose response (AID 488789)
# Trypsin, sequence (P00761 whole entry): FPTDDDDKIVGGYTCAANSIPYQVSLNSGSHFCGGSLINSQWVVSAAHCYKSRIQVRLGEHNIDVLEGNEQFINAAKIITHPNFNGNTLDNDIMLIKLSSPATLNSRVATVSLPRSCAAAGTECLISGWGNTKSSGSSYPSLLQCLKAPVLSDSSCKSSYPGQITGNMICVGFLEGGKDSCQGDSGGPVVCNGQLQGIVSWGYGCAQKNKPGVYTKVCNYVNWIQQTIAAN
# CAAX prenyl protease 2 [8] = biological target: T3, CAAX prenyl protease 2 (Homo sapiens, UniProt Q9Y256); experiment: inhibition of Ras-converting CAAX protease Rce1 – biochemical, yeast membranes, quenched-peptide fluorescence, cherry-pick, dose response (AID 588849)
# T3 sequence (Q9Y256 whole entry): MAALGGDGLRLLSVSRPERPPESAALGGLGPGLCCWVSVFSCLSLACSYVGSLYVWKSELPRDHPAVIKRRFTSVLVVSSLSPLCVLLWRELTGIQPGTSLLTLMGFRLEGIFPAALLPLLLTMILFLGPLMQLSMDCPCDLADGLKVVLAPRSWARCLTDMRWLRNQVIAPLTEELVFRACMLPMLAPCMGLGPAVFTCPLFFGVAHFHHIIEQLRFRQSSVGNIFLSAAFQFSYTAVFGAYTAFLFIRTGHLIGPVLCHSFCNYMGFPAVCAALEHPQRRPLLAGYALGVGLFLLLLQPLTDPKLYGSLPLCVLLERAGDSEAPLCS
# CAAX prenyl protease 2 [9] = biological target: T4, CAAX prenyl protease 2 (Saccharomyces cerevisiae S288c, UniProt Q03530); format: biochemical
# T4 sequence (Q03530 whole entry): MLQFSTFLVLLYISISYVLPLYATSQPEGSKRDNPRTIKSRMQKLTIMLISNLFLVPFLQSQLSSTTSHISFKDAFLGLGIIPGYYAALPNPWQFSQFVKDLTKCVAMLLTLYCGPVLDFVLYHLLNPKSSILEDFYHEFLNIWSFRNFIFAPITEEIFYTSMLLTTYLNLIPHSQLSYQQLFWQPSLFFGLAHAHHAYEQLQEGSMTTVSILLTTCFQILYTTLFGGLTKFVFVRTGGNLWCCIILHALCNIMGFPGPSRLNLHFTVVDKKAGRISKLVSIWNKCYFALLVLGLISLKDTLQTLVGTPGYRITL
# Photoreceptor-specific nuclear receptor, sequence (Q9Y5X4 whole entry): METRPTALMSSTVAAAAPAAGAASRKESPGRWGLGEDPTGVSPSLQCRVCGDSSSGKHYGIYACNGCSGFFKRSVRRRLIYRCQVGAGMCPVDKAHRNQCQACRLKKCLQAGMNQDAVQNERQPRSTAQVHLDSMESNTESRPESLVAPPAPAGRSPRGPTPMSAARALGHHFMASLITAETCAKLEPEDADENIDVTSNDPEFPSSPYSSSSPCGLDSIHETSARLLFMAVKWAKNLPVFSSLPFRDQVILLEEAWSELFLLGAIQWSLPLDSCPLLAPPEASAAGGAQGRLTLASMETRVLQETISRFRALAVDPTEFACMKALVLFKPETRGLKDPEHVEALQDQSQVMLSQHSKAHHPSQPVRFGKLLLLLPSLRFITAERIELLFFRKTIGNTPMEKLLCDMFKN
compound,measurement,setting,value
O=C(Nc1nc(-c2nc3ccccc3s2)cs1)c1ccco1,IC50,[1],2.44 µM (active)
same,IC50,[2],3.92 µM (active)
same,IC50,[3],10.1 µM (active)
same,IC50,[4],> 100 µM (inactive)
same,IC50,Prothrombin,75.1 µM (active)
CCC(=O)NC(c1cc(Cl)c2cccnc2c1O)C1CC1 (stereo not given),AC50,HEK293,10.1 µM (active)
same,AC50,INS1,1.89 µM (active)
O=C(CCN1C(=O)/C(=C\c2cccs2)SC1=S)Nc1ccccn1,IC50,[3],9.93 µM (active)
same,IC50,[4],> 100 µM (inactive)
same,IC50,Prothrombin,15.1 µM (active)
Cn1c(=O)c2[nH]c(-c3ccccc3Cl)c(O)c2n(C)c1=O,EC50,[5],55.6 µM (inactive)
same,EC50,[6],> 53 µM (inactive)
same,EC50,[7],16 µM (active)
COc1ccc(C2=NN(C(=O)CCC(=O)O)C(c3cccs3)C2)cc1 (stereo not given),AC50,Trypsin,4.38 µM (active)
same,AC50,CAAX prenyl protease 2 [8],12.6 µM (active)
same,AC50,CAAX prenyl protease 2 [9],9.03 µM (active)
Cc1ccc2c(n1)sc1c(-c3ccccc3)c(C#N)c(N)nc12,EC50,[5],> 99 µM (inactive)
same,EC50,[7],> 99 µM (inactive)
Cc1nn(-c2ccccc2)c2nc(N)c(C(N)=O)cc12,AC50,Trypsin,37.9 µM (active)
same,AC50,CAAX prenyl protease 2 [8],21.3 µM (active)
